Toxic doses and inconclusive results are not listed. No stated cut-off is given here; in the data, active means T/C of 150% or more; inactive means T/C below 125%.
Tested on: L1210 leukemia ip in BDF1 mice, survival T/C
Test: NCI In Vivo Anticancer Drug Screen. Data for tumor model L1210 Leukemia (intraperitoneal) in B6D2F1 (BDF1) mice
Details: endpoint: mean survival time, higher = longer survival
Summary of the method: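 Transplanted-tumor mice were given test agent; controls received vehicle only. Survival readings from the two groups were divided (treated over control).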

[1] = dose: 100.0 mg/kg/injection, schedule: Q01DX001 (ip), vehicle: Klucel (hydroxypropylcellulose) (HPC)
[2] = dose: 100.0 mg/kg/injection, schedule: Q04DX003 (ip), vehicle: Klucel (hydroxypropylcellulose) (HPC)
[3] = dose: 200.0 mg/kg/injection, schedule: Q01DX001 (ip), vehicle: Klucel (hydroxypropylcellulose) (HPC)
[4] = dose: 200.0 mg/kg/injection, schedule: Q04DX003 (ip), vehicle: Klucel (hydroxypropylcellulose) (HPC)
[5] = dose: 400.0 mg/kg/injection, schedule: Q04DX003 (ip), vehicle: Klucel (hydroxypropylcellulose) (HPC)
[6] = dose: 100.0 mg/kg/injection, schedule: Q01DX001 (ip), vehicle: saline with Tween-80
[7] = dose: 200.0 mg/kg/injection, schedule: Q01DX001 (ip), vehicle: saline with Tween-80
[8] = dose: 100.0 mg/kg/injection, schedule: Q01DX001 (ip), vehicle: saline
[9] = dose: 200.0 mg/kg/injection, schedule: Q01DX001 (ip), vehicle: saline
[10] = dose: 400.0 mg/kg/injection, schedule: Q01DX001 (ip), vehicle: saline
[11] = dose: 100.0 mg/kg/injection, schedule: Q04DX002 (ip), vehicle: Klucel (hydroxypropylcellulose) (HPC)
[12] = dose: 200.0 mg/kg/injection, schedule: Q04DX002 (ip), vehicle: Klucel (hydroxypropylcellulose) (HPC)
[13] = dose: 400.0 mg/kg/injection, schedule: Q04DX002 (ip), vehicle: Klucel (hydroxypropylcellulose) (HPC)

Measured: T/C

Cc1cc(=O)c2cccc(-c3ccccc3)c2[nH]1
inactive: dose: 25.0 mg/kg/injection, schedule: Q01DX009 (ip), vehicle: acetone 95 % of control | dose: 25.0 mg/kg/injection, schedule: Q04DX003 (ip), vehicle: saline 101 % of control | dose: 50.0 mg/kg/injection, schedule: Q01DX009 (ip), vehicle: acetone 92 % of control | dose: 50.0 mg/kg/injection, schedule: Q04DX003 (ip), vehicle: saline 100 % of control | dose: 100.0 mg/kg/injection, schedule: Q01DX009 (ip), vehicle: acetone 92 % of control | dose: 100.0 mg/kg/injection, schedule: Q04DX003 (ip), vehicle: saline 100 % of control | dose: 200.0 mg/kg/injection, schedule: Q04DX003 (ip), vehicle: saline 96 % of control

CCOC(=O)c1ccc(N=NN(C)CC(C)C)cc1
inactive: [1] 107 % of control | dose: 100.0 mg/kg/injection, schedule: Q01DX009 (ip), vehicle: Klucel (hydroxypropylcellulose) (HPC) 112 % of control | [2] 105 % of control | [3] 104 % of control | dose: 200.0 mg/kg/injection, schedule: Q01DX009 (ip), vehicle: Klucel (hydroxypropylcellulose) (HPC) 122 % of control | [4] 107 % of control | dose: 400.0 mg/kg/injection, schedule: Q01DX001 (ip), vehicle: Klucel (hydroxypropylcellulose) (HPC) 107 % of control | [5] 108 % of control

CN(C(=O)NCCCl)C1CCC(C(=O)O)CC1 (stereo not drawn)
inactive: [1] 92 % of control | [3] 88 % of control

N#CCc1ccccc1NC(=O)CCl
inactive: [6] 100 % of control | [7] 106 % of control | dose: 400.0 mg/kg/injection, schedule: Q01DX001 (ip), vehicle: saline with Tween-80 108 % of control

Cc1noc(/N=C/c2cccc(Cl)c2)c1C
inactive: [8] 101 % of control | [9] 105 % of control | [10] 101 % of control

CS(=O)(=O)OCCN(CCO)c1cn(C(c2ccccc2)(c2ccccc2)c2ccccc2)c(=O)n(C(c2ccccc2)(c2ccccc2)c2ccccc2)c1=O
inactive: dose: 50.0 mg/kg/injection, schedule: Q01DX001 (ip), vehicle: saline 94 % of control | [8] 105 % of control | [9] 97 % of control | [10] 103 % of control

O=c1nc(NC2OC(CO)C(O)C2O)ccn1C1OC(CO)C(O)C1O (stereo not drawn)
inactive: dose: 100.0 mg/kg/injection, schedule: Q01DX005 (ip), vehicle: saline 102 % of control | dose: 200.0 mg/kg/injection, schedule: Q01DX005 (ip), vehicle: saline 108 % of control

C[n+]1cc(I)cc2ccccc21
inactive: dose: 50.0 mg/kg/injection, schedule: Q01DX001 (ip), vehicle: carboxymethylcellulose (CMC) 97 % of control | dose: 100.0 mg/kg/injection, schedule: Q01DX001 (ip), vehicle: carboxymethylcellulose (CMC) 103 % of control | dose: 200.0 mg/kg/injection, schedule: Q01DX001 (ip), vehicle: carboxymethylcellulose (CMC) 103 % of control | dose: 400.0 mg/kg/injection, schedule: Q01DX001 (ip), vehicle: carboxymethylcellulose (CMC) 101 % of control

COC(=O)c1ccccc1N=NN(C)CC(C)C
inactive: dose: 50.0 mg/kg/injection, schedule: Q01DX009 (ip), vehicle: saline with Tween-80 110 % of control | dose: 50.0 mg/kg/injection, schedule: Q04DX003 (ip), vehicle: saline with Tween-80 103 % of control | dose: 100.0 mg/kg/injection, schedule: Q01DX009 (ip), vehicle: saline with Tween-80 121 % of control | dose: 100.0 mg/kg/injection, schedule: Q04DX003 (ip), vehicle: saline with Tween-80 114 % of control

CC(=O)NC(c1ccccc1)C(C)C (stereo not drawn)
inactive: [6] 92 % of control | [7] 103 % of control

CS(=O)(=O)c1ccc(C(O)C(CO)NC(=O)C(Cl)Cl)cc1 (stereo not drawn)
inactive: [11] 96 % of control | [12] 93 % of control | [13] 90 % of control

Cc1ccc(-c2ccccc2)cc1C(=O)O
inactive: [11] 94 % of control | [12] 90 % of control | [13] 101 % of control

O=S(=O)(Nc1ccccc1)c1ccccc1
inactive: [2] 98 % of control | [4] 107 % of control | [5] 98 % of control

CC(=O)N(C(C)C)C(C)C
inactive: dose: 0.75 mg/kg/injection, schedule: Q01DX001 (ip), vehicle: saline with Tween-80 100 % of control | dose: 1.5 mg/kg/injection, schedule: Q01DX001 (ip), vehicle: saline with Tween-80 97 % of control | dose: 3.0 mg/kg/injection, schedule: Q01DX001 (ip), vehicle: saline with Tween-80 102 % of control | dose: 3.12 mg/kg/injection, schedule: Q01DX001 (ip), vehicle: saline with Tween-80 98 % of control | dose: 12.5 mg/kg/injection, schedule: Q01DX001 (ip), vehicle: saline with Tween-80 100 % of control

Reference: PubChem BioAssay AID248 (DTP/NCI, 2004)
